Data: patent publication US20240376091A1, “THIADIAZOLEAMIDE DERIVATIVES AND THEIR APPLICATIONS” (ZHEJIANG UNIVERSITY, priority 2021, published 2024)
Each block holds one molecule with its values, some of them ahead of it.

Target: T1, AR (Homo sapiens, UniProt P10275, T878A)
T1 construct: into the androgen-dependent PCa cells (LNCaP); endogenous in cells; host or cells: LNCaP-ARR2PB-eGFP
T1 sequence (P10275 1-920 T878A): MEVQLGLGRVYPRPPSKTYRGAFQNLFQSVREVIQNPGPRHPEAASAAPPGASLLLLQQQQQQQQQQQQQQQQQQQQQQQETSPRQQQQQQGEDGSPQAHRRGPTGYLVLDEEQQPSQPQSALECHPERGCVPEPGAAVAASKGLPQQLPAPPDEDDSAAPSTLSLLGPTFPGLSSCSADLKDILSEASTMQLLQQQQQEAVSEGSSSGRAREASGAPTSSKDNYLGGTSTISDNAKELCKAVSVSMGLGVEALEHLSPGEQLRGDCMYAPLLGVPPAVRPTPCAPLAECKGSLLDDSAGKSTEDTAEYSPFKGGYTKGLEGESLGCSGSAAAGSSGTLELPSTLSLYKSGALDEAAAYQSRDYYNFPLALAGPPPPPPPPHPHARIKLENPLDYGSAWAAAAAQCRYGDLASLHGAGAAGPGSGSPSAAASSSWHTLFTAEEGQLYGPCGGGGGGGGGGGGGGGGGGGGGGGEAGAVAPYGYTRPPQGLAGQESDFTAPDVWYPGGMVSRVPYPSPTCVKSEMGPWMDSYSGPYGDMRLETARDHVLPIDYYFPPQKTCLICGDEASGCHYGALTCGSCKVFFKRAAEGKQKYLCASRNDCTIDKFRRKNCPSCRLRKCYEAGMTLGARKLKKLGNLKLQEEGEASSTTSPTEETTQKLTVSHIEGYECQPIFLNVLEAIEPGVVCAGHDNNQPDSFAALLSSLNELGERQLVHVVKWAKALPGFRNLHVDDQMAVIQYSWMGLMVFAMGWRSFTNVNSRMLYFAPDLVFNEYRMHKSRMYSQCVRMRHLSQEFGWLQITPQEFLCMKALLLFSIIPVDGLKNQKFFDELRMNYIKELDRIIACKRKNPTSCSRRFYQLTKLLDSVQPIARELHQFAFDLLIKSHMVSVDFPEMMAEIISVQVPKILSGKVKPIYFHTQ
Test: AR transcriptional activity, LNCaP-ARR2PB-eGFP reporter cells
Assay type: cell-based
Conditions: read-out: IC50 AR transcriptional activities
Text: Detection principles: We conducted a stable transfection of promoter ARR2PB known for its strong AR responsiveness, into the androgen-dependent PCa cells (LNCaP). The expression of enhanced green fluorescent protein (eGFP) is depending on the degree of activation of AR. Therefore, LNCaP-ARR2PB-eGFP cell line could quantitatively determine the AR antagonistic activities of the compounds by evaluating the expression of eGFP.

Compound: Cc1oc(-c2cccc(OC(F)F)c2)cc1C(=O)Nc1nc(CN2CCN(C)CC2)ns1 [Compound A-131, 5-(3-(Difluoromethoxy)phenyl)-2-methyl-N-(3-((4-methylpiperazin-1-yl)methyl)-1,2,4-thiadiazol-5-yl)furan-3-carboxamide]
IC50: 1.42 µM

Compound: CC(=O)Cc1nsc(NC(=O)c2coc(-c3cccc(C(F)(F)F)c3)c2)n1 [Compound B-1, N-(3-(2-oxopropyl)-1,2,4-thiadiazol-5-yl)-5-(3-(trifluoromethyl)phenyl)furan-3-carboxamide]
IC50: 18.6 µM

Compound: CC(=O)Cc1nsc(NC(=O)c2coc(-c3cccc(C#N)c3)c2)n1 [Compound B-2, 5-(3-Cyanophenyl)-N-(3-(2-oxopropyl)-1,2,4-thiadiazol-5-yl)furan-3-carboxamide]
IC50: 54.9 µM

Compound: COc1cccc(-c2cc(C(=O)Nc3nc(CC(C)=O)ns3)co2)c1 [Compound B-3, 5-(3-Methoxyphenyl)-N-(3-(2-oxopropyl)-1,2,4-thiadiazol-5-yl)furan-3-carboxamide]
IC50: 12.6 µM

Compound: CC(=O)Cc1nsc(NC(=O)c2coc(-c3cccc(OC(F)(F)F)c3)c2)n1 [Compound B-4, N-(3-(2-oxopropyl)-1,2,4-thiadiazol-5-yl)-5-(3-(trifluoromethoxy)phenyl)furan-3-carboxamide]
IC50: 32.5 µM

Compound: CC(=O)Cc1nsc(NC(=O)c2coc(-c3cccc(OC(F)F)c3)c2)n1 [Compound B-5, 5-(3-(Difluoromethoxy)phenyl)-N-(3-(2-oxopropyl)-1,2,4-thiadiazol-5-yl)furan-3-carboxamide]
IC50: 19.6 µM

Compound: CC(Cc1nsc(NC(=O)c2coc(-c3cccc(C(F)(F)F)c3)c2)n1)N(C)C (stereo not drawn) [Compound B-6, N-(3-(2-(dimethylamino)propyl)-1,2,4-thiadiazol-5-yl)-5-(3-(trifluoromethyl)phenyl) furan-3-carboxamide]
IC50: 11.8 µM

Compound: CCN(CC)C(C)Cc1nsc(NC(=O)c2coc(-c3cccc(C(F)(F)F)c3)c2)n1 (stereo not drawn) [Compound B-7, N-(3-(2-(diethylamino)propyl)-1,2,4-thiadiazol-5-yl)-5-(3-(trifluoromethyl)phenyl)furan-3-carboxamide]
IC50: 15 µM

Compound: CC(Cc1nsc(NC(=O)c2coc(-c3cccc(C#N)c3)c2)n1)N1CCCC1 (stereo not drawn) [Compound B-12, 5-(3-Cyanophenyl)-N-(3-(2-(pyrrolidin-1-yl)propyl)-1,2,4-thiadiazol-5-yl)furan-3-carboxamide]
IC50: 23.3 µM

Compound: COc1cccc(-c2cc(C(=O)Nc3nc(CC(C)N4CCCCC4)ns3)co2)c1 (stereo not drawn) [Compound B-14, 5-(3-Methoxyphenyl)-N-(3-(2-(piperidin-1-yl)propyl)-1,2,4-thiadiazol-5-yl)furan-3-carboxamide]
IC50: 33.6 µM

Compound: CC(Cc1nsc(NC(=O)c2coc(-c3cccc(OC(F)(F)F)c3)c2)n1)N1CCOCC1 (stereo not drawn) [Compound B-16, N-(3-(2-morpholinopropyl)-1,2,4-thiadiazol-5-yl)-5-(3-(trifluoromethoxy)phenyl)furan-3-carboxamide]
IC50: 35.7 µM

Compound: CC(Cc1nsc(NC(=O)c2coc(-c3cccc(OC(F)F)c3)c2)n1)N1CCN(C)CC1 (stereo not drawn) [Compound B-19, 5-(3-(Difluoromethoxy)phenyl)-N-(3-(2-(4-methylpiperazin-1-yl)propyl)-1,2,4-thiadiazol-5-yl)furan-3-carboxamide]
IC50: 59.3 µM

Compound: CC(O)Cc1nsc(NC(=O)c2coc(-c3cccc(C(F)(F)F)c3)c2)n1 (stereo not drawn) [Compound B-20, N-(3-(2-hydroxypropyl)-1,2,4-thiadiazol-5-yl)-5-(3-(trifluoromethyl)phenyl)furan-3-carboxamide]
IC50: 11.5 µM

Compound: CC(O)(Cc1nsc(NC(=O)c2coc(-c3cccc(C(F)(F)F)c3)c2)n1)C(F)(F)F (stereo not drawn) [Compound B-25, N-(3-(3,3,3-trifluoro-2-hydroxy-2-methylpropyl)-1,2,4-thiadiazol-5-yl)-5-(3-(trifluoro-methyl)phenyl)furan-3-carboxamide]
IC50: 15.5 µM

Compound: CC(Cc1nsc(NC(=O)c2coc(-c3cccc(C(F)(F)F)c3)c2)n1)=C(F)F [Compound B-30, N-(3-(3,3-difluoro-2-methylallyl)-1,2,4-thiadiazol-5-yl)-5-(3-(trifluoromethyl)phenyl) furan-3-carboxamide]
IC50: 4.93 µM

Compound: CC(F)(F)Cc1nsc(NC(=O)c2coc(-c3cccc(C(F)(F)F)c3)c2)n1 [Compound B-35, N-(3-(2,2-difluoropropyl)-1,2,4-thiadiazol-5-yl)-5-(3-(trifluoromethyl)phenyl)furan-3-carboxamide]
IC50: 14.5 µM

Compound: O=C(Nc1nc(CCl)ns1)c1coc(-c2cccc(C(F)(F)F)c2)c1 [Compound B-40, N-(3-(chloromethyl)-1,2,4-thiadiazol-5-yl)-5-(3-(trifluoromethyl)phenyl)furan-3-carboxamide]
IC50: 12.3 µM

Compound: CN(C)Cc1nsc(NC(=O)c2coc(-c3cccc(C#N)c3)c2)n1 [Compound B-47, 5-(3-Cyanophenyl)-N-(3-((dimethylamino)methyl)-1,2,4-thiadiazol-5-yl)furan-3-carboxamide]
IC50: 18.6 µM

Compound: CCN(CC)Cc1nsc(NC(=O)c2coc(-c3cccc(OC)c3)c2)n1 [Compound B-50, N-(3-((diethylamino)methyl)-1,2,4-thiadiazol-5-yl)-5-(3-methoxyphenyl)furan-3-carboxamide]
IC50: 22.9 µM

Compound: O=C(Nc1nc(CN2CCCCC2)ns1)c1coc(-c2cccc(OC(F)F)c2)c1 [Compound B-56, 5-(3-(Difluoromethoxy)phenyl)-N-(3-(piperidin-1-ylmethyl)-1,2,4-thiadiazol-5-yl)furan-3-carboxamide]
IC50: 28.3 µM

Compound: O=C(Nc1nc(CN2CCOCC2)ns1)c1coc(-c2cccc(OC(F)F)c2)c1 [Compound B-57, 5-(3-(Difluoromethoxy)phenyl)-N-(3-(morpholinomethyl)-1,2,4-thiadiazol-5-yl)furan-3-carboxamide]
IC50: 23.5 µM

Compound: CN1CCN(Cc2nsc(NC(=O)c3coc(-c4cccc(OC(F)F)c4)c3)n2)CC1 [Compound B-58, 5-(3-(Difluoromethoxy)phenyl)-N-(3-((4-methylpiperazin-1-yl)methyl)-1,2,4-thiadiazol-5-yl)furan-3-carboxamide]
IC50: 32.6 µM

Compound: Cc1sc(-c2cccc(C(F)(F)F)c2)cc1C(=O)Nc1nc(CC(C)N(C)C)ns1 (stereo not drawn) [Compound C-6, N-(3-(2-(dimethylamino)propyl)-1,2,4-thiadiazol-5-yl)-2-methyl-5-(3-(trifluoromethyl)phenyl)thiophene-3-carboxamide]
IC50: 33.2 µM

Compound: CCN(CC)C(C)Cc1nsc(NC(=O)c2cc(-c3cccc(C(F)(F)F)c3)sc2C)n1 (stereo not drawn) [Compound C-7, N-(3-(2-(diethylamino)propyl)-1,2,4-thiadiazol-5-yl)-2-methyl-5-(3-(trifluoromethyl)phenyl)thiophene-3-carboxamide]
IC50: 10.6 µM

Second part, the molecule after the results:

IC50: 9.33 µM
Compound: CC(=O)Cc1nsc(NC(=O)c2cc(-c3cccc(C(F)(F)F)c3)sc2C)n1 [Compound C-1, 2-Methyl-N-(3-(2-oxopropyl)-1,2,4-thiadiazol-5-yl)-5-(3-(trifluoromethyl)phenyl)thiophene-3-carboxamide]

IC50: 33.3 µM
Compound: CC(=O)Cc1nsc(NC(=O)c2cc(-c3cccc(C#N)c3)sc2C)n1 [Compound C-2, 5-(3-Cyanophenyl)-2-methyl-N-(3-(2-oxopropyl)-1,2,4-thiadiazol-5-yl)thiophene-3-carboxamide]

IC50: 43.7 µM
Compound: COc1cccc(-c2cc(C(=O)Nc3nc(CC(C)=O)ns3)c(C)s2)c1 [Compound C-3, 5-(3-Methoxyphenyl)-2-methyl-N-(3-(2-oxopropyl)-1,2,4-thiadiazol-5-yl)thiophene-3-carboxamide]

IC50: 25.1 µM
Compound: CC(=O)Cc1nsc(NC(=O)c2cc(-c3cccc(OC(F)(F)F)c3)sc2C)n1 [Compound C-4, 2-Methyl-N-(3-(2-oxopropyl)-1,2,4-thiadiazol-5-yl)-5-(3-(trifluoromethoxy)phenyl)thiophene-3-carboxamide]

IC50: 49.3 µM
Compound: CC(=O)Cc1nsc(NC(=O)c2cc(-c3cccc(OC(F)F)c3)sc2C)n1 [Compound C-5, 5-(3-(Difluoromethoxy)phenyl)-2-methyl-N-(3-(2-oxopropyl)-1,2,4-thiadiazol-5-yl)thiophene-3-carboxamide]

IC50: 5.77 µM
Compound: Cc1sc(-c2cccc(C#N)c2)cc1C(=O)Nc1nc(CC(C)N2CCCCC2)ns1 (stereo not drawn) [Compound C-12, 5-(3-Cyanophenyl)-2-methyl-N-(3-(2-(piperidin-1-yl)propyl)-1,2,4-thiadiazol-5-yl)thiophene-3-carboxamide]
